Legend:
[1] = test system: UV-B exposed skin; assay: UV-B induced skin damage in SKH-1 hairless mice; type: in vivo, mouse; details: topical post exposure
Procedure: (§1) FIG. 23 illustrates the simulation of sunlight by irradiation with UVB lamps (310 nm). The irradiation was conducted in a phototoxicity testing chamber and fitted with a UV-B lamp providing with a spectral output of approximately 310 nm. The source of UVR was a short-wavelength UV lamp (VWR. Radnor, PA). The peak spectral output of this lamp was approximately 310 nm, with no energy detectable below 260 nm, approximately 0.6% between 260 and 280 nm (UV-C), 72.7% between 280 and 320 nm (UV-B), and 26.7% between 320 and 400 nm (UV-A). Radiation dosage of UV-B per irradiation was set at 54 mJ/cm^2 for the first week, 72 mJ/cm^2 for the second week, 90 mJ/cm^2 for the third week, and 108 mJ/cm^2 for the remaining weeks, as confirmed by a UV monitor. Each irradiation event was 10 minutes long.
POH-LA conjugate, linoleic acid, POH, and the additive combination of linoleic acid and POH were each suspended in glycerol:ethanol (90:10 vol/vol) to a final concentration of 10 nM with 50 μL and applied to each SKH-1 hairless mouse post UV-B exposure for treatment. The sunblock mouse was gently wiped on the exposure area with the sunblock towelette. […] In FIG. 23B, the mice were treated with the glycerol:ethanol vehicle only. In FIG. 23C, the mice were treated with POH. In FIG. 23D, the mice were treated with linoleic acid. In FIG. 23E, the mice were treated with an mixture of linoleic acid and POH. In FIG. 23F, the mice were treated with POH-LA conjugate. In FIG. 23G, the mice were treated with sunblock. The application of POH-LA conjugate to UV-B exposed tissue limits the amount of observable skin damage as compared to the untreated control (B) or the individual components of POH-LA conjugate either alone (POH—C and LA—D), in mixture (E), or with sunblock (G).
as §1, with “FIGS. 24A-D illustrates the” for “FIG. 23 illustrates the”, “UV lamp (VWR, Radnor, PA).” for “UV lamp (VWR. Radnor, PA).”, “second week, and 90 mJ/cm^2” for “second week, 90 mJ/cm^2”, “third week, as confirmed” for “third week, and 108 mJ/cm^2 for the remaining weeks, as confirmed”, “UV monitor.” for “UV monitor. Each irradiation event was 10 minutes long.”
POH-LA conjugate (FIG. 24A), linoleic acid (FIG. 24B), POH (FIG. 24C), and the additive combination of linoleic acid and POH (FIG. 24D) were each suspended in glycerol:ethanol (90:10 vol/vol) to a final concentration of 10 nM with 50 μL applied to each mouse post UV-B exposure for treatment. The application of POH-LA conjugate to UV-B exposed tissue limits the amount of observable skin damage as compared the individual components of POH-LA conjugate either alone or in mixture.
as §1, with “This example” for “FIG. 23”, “nm)” for “nm). The irradiation”, “(VWR,” for “(VWR.”, “monitor.” for “monitor. Each irradiation event was 10 minutes long.”
POH-LA conjugate, linoleic acid, POH, and the additive combination of linoleic acid and POH were each suspended in glycerol:ethanol (90:10 vol/vol) to a final concentration of 10 nM with 50 μL applied to each mouse post UV-B exposure for treatment. […]

[2] = test system: IL-1β; assay: Serum IL-1β following UV exposure; type: in vivo, mouse
Procedure: SKH-1 hairless mice were treated with 10 mg/kg POH-LA conjugate freshly prepared daily. The POH-LA conjugate was formulated in glycerol:ethanol (90:10) while the control animals received the glycerol:ethanol vehicle only or the commercially available sunblock (Well & Good Sun Protection Wipes SPF 15). Additional test groups were treated with POH formulated in the glycerol:ethanol vehicle or linoleic acid formulated in the glycerol:ethanol vehicle. 50 μL of each formulation was placed on a area 1 cm^2 area that was exposed to the UV light. The mice were treated with their respective formulations after exposure to the UV light. In FIG. 22A, the mouse was treated with sunblock. In FIG. 22B, the mouse was treated with POH. In FIG. 22C, the mouse was treated with linoleic acid. In FIG. 22D, the mouse was treated with POH-LA conjugate. In FIG. […]:ethanol vehicle only. The POH-LA conjugate, POH or linoleic acid solutions were gently spread on the skin surface and allowed to air dry. The sunblock mouse was gently wiped on the exposure area with the sunblock towelette. This exposure and treatment went on for a maximum of 10 weeks. Throughout the experimental period the animals were photographed and weighed. At the end of the experimental period the mice were photographed and euthanized, followed by skin and blood collection. Blood was analyzed for markers of inflammation and DNA recovered from the exposed area of the skin and analyzed for markers of DNA damage.
Furthermore, blood samples were taken from each mouse 4 hours after the last cutaneous treatment. About 0.5 mL of blood was collected by cardiac puncture […]. Serum was aliquoted in Eppendorf tubes and store at −80° C. as preparation for cytokine analyses. […]
Mice were treated with 10 mg/kg POH-LA conjugate freshly prepared daily. […] Blood was analyzed for markers of inflammation and DNA recovered from the exposed area of the skin and analyzed for markers of DNA damage.

[3] = 3 weeks of UV-B exposure and treatment
[4] = 5 weeks of UV-B exposure and treatment

| Compound | observable skin damage [1, 3] | observable skin damage [1, 4] | IL-1β serum levels increase [2] [pg/mL] |
| --- | --- | --- | --- |
| C=C(C)[C@@H]1CC=C(COC(=O)CCCCCCC/C=C\C/C=C\CCCCC)CC1 [POH-LA conjugate, Octadeca-9,12-dienoic acid 4-isopropenyl-cyclohex-1-enylmethyl ester] | displayed no damage | appeared the same as the unexposed control mice skin | 6.4 ± 2.5 |
| C=C(C)[C@@H]1CC=C(CO)CC1 [POH, perillyl alcohol] | displayed damage | displayed damage | 8.5 ± 3.0 |

Source: patent publication US20240197891A1, “PHARMACEUTICAL COMPOSITIONS COMPRISING POH DERIVATIVES” (UNIVERSITY OF SOUTHERN CALIFORNIA, priority 2021, published 2024)
